Assay results taken from publication PMC9189845, “Structure–Activity Relationships of 8-Hydroxyquinoline-Derived Mannich Bases with Tertiary Amines Targeting Multidrug-Resistant Cancer” (Journal of Medicinal Chemistry, 2022).
Where two headings read alike, the source gives them in different places.

Columns and labels:
[1] = tested on: MES-SA/Dx5 cells; assay: PrestoBlue viability assay, MES-SA/Dx5 cells (MDR, P-gp positive); settings: for IC50: Homo sapiens; for SR_TQ: selectivity ratio MES-SA vs MES-SA/Dx5, with TQ; for SR: selectivity ratio MES-SA vs MES-SA/Dx5, without TQ
[2] = tested on: A431 cells; assay: PrestoBlue viability assay, A431 cells; settings: Homo sapiens
[3] = tested on: A431-B1 cells; assay: PrestoBlue viability assay, A431-B1 (A431-ABCB1) cells
[4] = tested on: MES-SA cells; assay: PrestoBlue viability assay, MES-SA cells; settings: Homo sapiens, MES-SA
[5] = MES-SA/Dx5, 72 h, read-out: IC50 / μM MES-SA/Dx5, absence of TQ, 72 h incubation
[6] = MES-SA/Dx5, read-out: IC50 / μM MES-SA/Dx5 (values in parentheses), presence of 1 μM P-gp inhibitor tariquidar (TQ)
[7] = MES-SA/Dx5, read-out: pIC50 value MES-SA/Dx5 + TQ, MES-SA/Dx5 cells, with TQ (converted)
[8] = MES-SA/Dx5, read-out: pIC50 value MES-SA/Dx5, MES-SA/Dx5 cells, without TQ (converted)
[9] = A-431, 72 h, read-out: IC50 / µM A431, 72 h incubation
[10] = A-431, read-out: pIC50 A431, SARM figure (converted)
[11] = 72 h, read-out: IC50 / µM A431-B1, 72 h incubation
[12] = read-out: pIC50 A431-B1, SARM figure (converted)
[13] = 72 h, read-out: IC50 / μM MES-SA, absence of TQ, 72 h incubation
[14] = read-out: IC50 / μM MES-SA (values in parentheses), presence of 1 μM P-gp inhibitor tariquidar (TQ)
[15] = read-out: pIC50 value MES-SA+TQ, MES-SA cells, with TQ (converted)
[16] = read-out: pIC50 value MES-SA, MES-SA cells, without TQ (converted)
[17] = read-out: pIC50 MES-SA_TQ, presence of 1 μM TQ (converted), SARM figure

| SMILES | IC50 [1, 5] | IC50 [1, 6] | IC50 [1, 7] | IC50 [1, 8] | SR_TQ [1] | SR [1] | IC50 [2, 9] | IC50 [2, 10] | IC50 [3, 11] | IC50 [3, 12] | IC50 [4, 13] | IC50 [4, 14] | IC50 [4, 15] | IC50 [4, 16] | IC50 ([1]; MES-SA/Dx5, read-out: pIC50 Dx5_TQ, presence of 1 μM TQ (converted), SARM figure) | IC50 [4, 17] | SR (MES-SA_TQ / Dx5_TQ) (values in parentheses) ([1]; fraction of IC50 in P-gp negative vs positive cells, presence of 1 μM TQ) | IC50 ([4]; read-out: pIC50 MES-SA, absence of TQ (converted), SARM figure) |
| --- | --- | --- | --- | --- | --- | --- | --- | --- | --- | --- | --- | --- | --- | --- | --- | --- | --- | --- |
| CCOCc1cc(CN2CCCCC2)c(O)c2ncccc12 [Compound 22] | 0.79 ± 0.14 µM | 7.08 ± 0.23 µM | 7.08 µM | 0.776 µM | 1.29 | 11.12 | 25.2 ± 8.88 µM | 23.4 µM | 4.17 ± 1.49 µM | 3.89 µM | 8.77 ± 1.07 µM | 9.13 ± 0.32 µM | 9.12 µM | 8.71 µM | – | – | – | – |
| CCCOCc1cc(CN2CCCCC2)c(O)c2ncccc12 [Compound 23] | 0.34 ± 0.02 µM | 2.4 ± 0.04 µM | 2.4 µM | 0.339 µM | 1.48 | 10.97 | 6.72 ± 0.57 µM | 6.76 µM | 1.53 ± 0.55 µM | 1.45 µM | 3.72 ± 0.25 µM | 3.55 ± 0.08 µM | 3.55 µM | 3.72 µM | 2.75 µM | 3.8 µM | – | – |
| CC1CCN(Cc2cc(Cl)c3cccnc3c2O)CC1 [Compound 25] | 0.26 ± 0.04 µM | 1.59 µM | 1.58 µM | 0.257 µM | 1.82 | 10.37 | 8.93 ± 1.44 µM | 8.71 µM | 1.46 ± 0.08 µM | 1.45 µM | 2.7 ± 0.21 µM | 2.88 µM | 2.88 µM | 2.69 µM | – | – | – | – |
| COCc1cc(CN2CCC(C)CC2)c(O)c2ncccc12 [Compound 26] | 0.58 ± 0.05 µM | 4.68 ± 0.16 µM | 4.68 µM | 0.575 µM | 1.38 | 10.73 | 14.5 ± 3.84 µM | 13.8 µM | 2.29 ± 0.28 µM | 2.29 µM | 6.2 ± 0.66 µM | 6.47 ± 0.41 µM | 6.46 µM | 6.17 µM | – | – | – | – |
| CCOCc1cc(CN2CCC(C)CC2)c(O)c2ncccc12 [Compound 27] | 0.47 ± 0.05 µM | 3.05 ± 0.47 µM | 3.02 µM | 0.468 µM | 1.47 | 8.71 | 11.8 ± 4.34 µM | 11 µM | 2.37 ± 0.87 µM | 2.24 µM | 4.09 ± 0.42 µM | 4.48 ± 0.37 µM | 4.47 µM | 4.07 µM | – | – | – | – |
| CC1CCN(Cc2cc(COC(C)C)c3cccnc3c2O)CC1 [Compound 28] | 0.36 ± 0.04 µM | 2.15 ± 0.22 µM | 2.14 µM | 0.355 µM | 1.41 | 7.96 | 7.24 ± 1.78 µM | 7.08 µM | 1.72 ± 0.15 µM | 1.7 µM | 2.84 ± 0.35 µM | 3.02 ± 0.09 µM | 3.02 µM | 2.82 µM | – | – | – | – |
| Oc1c(CN2CCOCC2)cc(Br)c2cccnc12 [Compound 30] | 0.46 ± 0.04 µM | 0.85 ± 0.06 µM | 0.851 µM | 0.457 µM | 1.54 | 2.46 | 9.3 ± 3.05 µM | 8.91 µM | 2.89 ± 0.25 µM | 2.88 µM | 1.13 ± 0.13 µM | 1.32 ± 0.01 µM | 1.32 µM | 1.12 µM | – | – | – | – |
| COCc1cc(CN2CCOCC2)c(O)c2ncccc12 [Compound 31] | 5.64 ± 0.45 µM | 7.77 ± 0.31 µM | 7.76 µM | 5.62 µM | 1.15 | 1.75 | 34.4 ± 8.42 µM | 33.1 µM | 12.1 ± 1.47 µM | 12 µM | 9.89 ± 1.52 µM | 8.97 ± 1.01 µM | 8.91 µM | 9.77 µM | – | – | – | – |
| CCOCc1cc(CN2CCOCC2)c(O)c2ncccc12 [Compound 32] | 3 ± 0.3 µM | – | – | 2.95 µM | – | 1.95 | 24.7 ± 10.9 µM | 22.4 µM | 5.58 ± 0.58 µM | 5.5 µM | 5.85 ± 0.54 µM | – | – | 5.75 µM | – | – | – | – |
| CC(C)OCc1cc(CN2CCOCC2)c(O)c2ncccc12 [Compound 33] | 1.74 ± 0.29 µM | – | – | 1.7 µM | – | 1.79 | 13.2 ± 6.23 µM | 12 µM | 4.76 ± 0.23 µM | 4.79 µM | 3.12 ± 0.6 µM | – | – | 3.09 µM | – | – | – | – |
| COCc1cc(CN2CCN(C)CC2)c(O)c2ncccc12 [Compound 35] | 8.82 ± 1.41 µM | 27.54 ± 0.13 µM | – | 8.71 µM | 1.1 | 2.81 | 77.2 ± 11.6 µM | 75.9 µM | 26.49 ± 0.12 µM | 26.3 µM | 24.8 ± 3.36 µM | 30.2 ± 0.64 µM | 30.2 µM | 24.5 µM | – | – | 1.10 | – |
| CCOCc1cc(CN2CCN(C)CC2)c(O)c2ncccc12 [Compound 36] | 7.43 ± 0.46 µM | 17.1 ± 2.19 µM | 17 µM | 7.41 µM | 1.34 | 3.09 | 66.6 ± 20.8 µM | 63.1 µM | 24.1 ± 10.1 µM | 22.4 µM | 23 ± 1.46 µM | 22.9 ± 1.08 µM | 22.9 µM | 22.9 µM | – | 22.9 µM | – | 22.9 µM |
| CCCOCc1cc(CN2CCN(C)CC2)c(O)c2ncccc12 [Compound 37] | 3.24 ± 0.19 µM | 7.41 ± 0.01 µM | 7.41 µM | 3.24 µM | 1.66 | 4.17 | 19.9 ± 9.14 µM | 18.2 µM | 6.19 ± 1.73 µM | 5.89 µM | 13.5 ± 0.86 µM | 12.3 ± 0.28 µM | 12.3 µM | 13.5 µM | – | – | – | – |
| COCc1cc(CN2CCN(c3ccccc3)CC2)c(O)c2ncccc12 [Compound 39] | 0.48 ± 0.07 µM | 0.85 ± 0.08 µM | 0.851 µM | 0.479 µM | 1.41 | 2.23 | 9.99 ± 4.76 µM | 8.91 µM | 2.33 ± 0.35 µM | 2.29 µM | 1.08 ± 0.15 µM | 1.2 ± 0.05 µM | 1.2 µM | 1.07 µM | – | – | – | – |
